# Source: patent publication US20050154537A1, “Methods, program products, and systems for single and multi-agent dosing and other related methods” (priority 2003, published 2005)
# Tested on: Neutrophil Count (ANC)
# Test: Chemotherapeutic triplet cycle dose modifier (Taxol, Gemzar, Carboplatin), toxicity marker
# Type: in vivo
# Conditions: patient on triplet
# From the text: Table 3 illustrates a method of revising a drug dose in treating a patient with three pharamcologic and non-pharmacological modalities to optimize pharmacologic outcome, e.g., to reduce risk of an adverse drug event while assessing the clinical relevancy and validity of the measured surrogate markers. Previous Level of Toxicity-Efficacy (PLTE) is a value directly entered such as from a lab report. It is the numerical value of the marker of toxicity or efficacy reported at the previous dose cycle adjustment (evaluated at a specified elapsed time sufficient to capture the nadir of the dose effect). The surrogate marker is selected when the dose modifier is constructed. Current Level of Toxicity-Efficacy (CLTE) is a value directly entered such as from a lab report. It is the numerical value of the marker of toxicity or efficacy reported with the current dose cycle. The surrogate marker is that value that illustrates the expression of the toxicity or efficacy of the agent on a specific and pre-selected value determined when the dose modifier is constructed. […] If valid the value is fully appreciated and the dose modification can be calculated. […] The range, in days and indicated as the Lower Limit and Upper limit, has been determined by calculating a percentage (20%) above and below the true nadir value when only a single value is known. […]
smiles,measurement,setting,value
CC(=O)O[C@H]1C(=O)[C@@]2(C)[C@H]([C@H](OC(=O)c3ccccc3)[C@]3(O)C[C@H](OC(=O)[C@H](O)[C@@H](NC(=O)c4ccccc4)c4ccccc4)C(C)=C1C3(C)C)[C@]1(OC(C)=O)CO[C@@H]1C[C@@H]2O [Taxol],Current Level of Toxicity/CLTEM1,"current cycle total dose Taxol 450.00, Gemzar 7000.00, Carboplatin 650.00, marker Oct. 30, 2004",0.80
same,Previous Level of Toxicity/PLTEM1,"previous cycle total dose Taxol 400.00, Gemzar 8000.00, Carboplatin 600.00",0.40
